Tests used:
[1] = Plasma binding by RED device; assay type: in vitro ADME, mouse; settings: mouse plasma, RED device, 4 h, 37 °C; also: tested at 0.4 µM
Method: (§1) Nonspecific binding in plasma (f u, plasma), microsomes (f u, mic) and hepatocyte (f u, hep) were determined using the method seen in supplemental information (Supplemental Methods). […]
(§2) All validation compounds were incubated at 37 °C over 4 h, and in triplicate. For […]
(§3) plasma stability, 10 mM DMSO solutions of SLM and SLOH were diluted to 40 µM (10% DMSO). Plasma […]
(§4) shaking water bath (60 oscillations/min approx.). The assay was started by addition of 6 µL aliquots to […]
(§5) the plasma (final DMSO incubation concentration 0.1%). […]
(§6) MS/MS. Natural logarithm of peak area ratios (compound peak area normalized by IS peak area) were plotted against time and half-life calculated. […]
(§7) placed into the sample chamber (indicated by the red ring) with 400 µL of PBS into the adjacent chamber.
(§8) The plate was sealed with a self-adhesive lid and incubated at 37 °C on an orbital shaker (1.5 g approx.) for 4 h. Aliquots (100 µL) were removed from each side of the insert, and analyzed after protein precipitation using 4 folds acetonitrile (ACN) containing berberine chloride as internal standard (IS) by LC-MS/MS (Analytical me thod seen below). The experimental procedure outlined in the Thermo Scientific RED device systems brochure was adopted in the present study . […]

[2] = Plasma binding by RED device; assay type: in vitro ADME, human; settings: human plasma, RED device, 4 h, 37 °C; also: tested at 0.4 µM
Method: as §1, §2, §3, §4, §5, §6, §7, §8

in vitro = settings: human, Caco-2
OATP1B3 = target: T1, OATP1B3 (Homo sapiens, UniProt Q9NPD5); assay: OATP substrate identification, uptake in stably transfected HEK293 cells
T1 sequence (Q9NPD5 1-702): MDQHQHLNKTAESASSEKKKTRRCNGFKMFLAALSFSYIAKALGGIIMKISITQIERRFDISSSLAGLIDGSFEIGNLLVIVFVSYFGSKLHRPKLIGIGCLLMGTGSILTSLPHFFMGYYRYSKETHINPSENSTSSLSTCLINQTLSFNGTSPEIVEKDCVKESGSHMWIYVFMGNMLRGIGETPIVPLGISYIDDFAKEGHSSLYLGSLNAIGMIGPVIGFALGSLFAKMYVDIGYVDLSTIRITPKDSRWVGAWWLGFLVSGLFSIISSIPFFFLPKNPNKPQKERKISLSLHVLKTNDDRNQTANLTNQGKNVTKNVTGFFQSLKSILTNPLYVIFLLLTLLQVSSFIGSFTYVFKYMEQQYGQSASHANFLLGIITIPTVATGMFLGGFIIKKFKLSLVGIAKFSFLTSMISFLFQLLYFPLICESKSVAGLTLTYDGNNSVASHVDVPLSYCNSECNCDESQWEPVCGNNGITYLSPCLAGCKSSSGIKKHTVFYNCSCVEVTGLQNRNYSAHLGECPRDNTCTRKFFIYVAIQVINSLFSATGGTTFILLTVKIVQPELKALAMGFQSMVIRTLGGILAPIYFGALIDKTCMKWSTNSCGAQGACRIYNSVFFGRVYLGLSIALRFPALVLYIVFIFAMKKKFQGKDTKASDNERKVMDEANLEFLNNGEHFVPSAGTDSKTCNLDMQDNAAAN
Method: (§9) Daily changes of medium were performed and on the second day after seeding using medium containing 10 mM sodium butyrate.
(§10) Stably transfected HEK cells and control vector-transfected HEK293 cells were first washed (3 × 1 mL) with prewarmed HBSS (pH 7.4) and then were incubated with 250 μL of HBSS containing compounds at concentrations of 1 and 10 μM. Cells were incubated for 10 mins at 37 °C for all experiments. After incubation, uptake was stopped by aspirating the incubation solution and washing each well 3 times with 200 μL of ice-old HBSS. The cells were lysed in 150 μL of 1 M NaOH for 30 mins, and then neutralized by adding equal volumes of 1 M HCl.
(§11) The following equations (3 and 4) were used to calculate the uptake rates (U, pmol/mg/min) and the OATP1B1, OATP1B3, OATP2B1 and OATP1A2 uptake ratio (UR):3 U=Clysate/P×T 4 UR=UOATP1B1/1B3/2B1/1A2/UHEK293−MOCK where C lysate is the compound concentration in cell lysates. P is the protein concentration in cell lysates. T is the incubation time. U OATP1B1/1B3/2B1/1A2 is the uptake rate obtained in HEK293 stably transfected OATP1B1, OATP1B3, OATP2B1 or OATP1A2 transportation. U HEK293-MOCK is the uptake rate obtained in control vector-transfected HEK293 transportation.

OATP1B1 = target: T2, OATP1B1 (Homo sapiens, UniProt Q9Y6L6); assay: as above
T2 sequence (Q9Y6L6 1-691): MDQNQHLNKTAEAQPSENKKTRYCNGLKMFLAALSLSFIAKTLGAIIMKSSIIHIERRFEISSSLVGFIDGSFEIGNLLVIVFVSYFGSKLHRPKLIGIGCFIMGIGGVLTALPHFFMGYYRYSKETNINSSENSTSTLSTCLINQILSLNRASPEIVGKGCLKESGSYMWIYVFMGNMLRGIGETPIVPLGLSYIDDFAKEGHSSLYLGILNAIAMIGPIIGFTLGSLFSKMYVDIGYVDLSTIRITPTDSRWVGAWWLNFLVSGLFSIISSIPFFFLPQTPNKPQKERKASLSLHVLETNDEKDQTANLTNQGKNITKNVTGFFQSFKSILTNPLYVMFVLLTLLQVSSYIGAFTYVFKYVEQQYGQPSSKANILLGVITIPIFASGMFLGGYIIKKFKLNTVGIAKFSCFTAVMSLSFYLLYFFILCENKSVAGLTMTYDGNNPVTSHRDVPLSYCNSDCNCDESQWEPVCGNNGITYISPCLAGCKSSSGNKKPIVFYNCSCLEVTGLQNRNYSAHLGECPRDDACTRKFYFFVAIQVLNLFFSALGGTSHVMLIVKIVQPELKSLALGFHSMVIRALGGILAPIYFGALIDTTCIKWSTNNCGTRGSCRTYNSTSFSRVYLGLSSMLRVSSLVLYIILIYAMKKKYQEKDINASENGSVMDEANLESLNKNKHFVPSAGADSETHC
Method: as §9, §10, §11

[3] = Blood cell partitioning (blood to plasma ratio); assay type: in vitro ADME; settings: fresh whole blood, 37 °C
Method: The blood to plasma ratio was determined using the method shown in supplemental information (Supplemental Methods). […] The blood cell partitioning was calculated as follows. […] Plasma, liver microsomes and hepatocyte binding by RED device The stability of the compounds in plasma, liver microsomes and hepatocyte were studied to ensure the reliability of the binding data. Hepatocyte was deactivated by leaving them on a bench for 2 days and going through a freeze thaw cycle thereafter.

Caco-2 cells = assay: In vitro permeability study using Caco-2 cell; settings: Caco-2, 1 μM input, positive controls
[4] = Brain distribution by brain slices experiment; assay type: in vitro ADME, mouse; settings: mouse brain slices, positive controls
Method: The unbound volume of distribution in the brain (V u, brain) was determined in fresh brain slices using the protocol published by Friden et al.[25].

Hepatocyte stability = assay type: in vitro ADME; settings: ICR/CD-1, hepatocytes (cryopreserved, suspension); mouse, 1 μM input, positive controls; read-out: Hepatocytes Clint, app
CYP1A2 = target: T3, CYP1A2 (Homo sapiens, UniProt P05177); settings: hepatocytes
T3 sequence (P05177 1-516): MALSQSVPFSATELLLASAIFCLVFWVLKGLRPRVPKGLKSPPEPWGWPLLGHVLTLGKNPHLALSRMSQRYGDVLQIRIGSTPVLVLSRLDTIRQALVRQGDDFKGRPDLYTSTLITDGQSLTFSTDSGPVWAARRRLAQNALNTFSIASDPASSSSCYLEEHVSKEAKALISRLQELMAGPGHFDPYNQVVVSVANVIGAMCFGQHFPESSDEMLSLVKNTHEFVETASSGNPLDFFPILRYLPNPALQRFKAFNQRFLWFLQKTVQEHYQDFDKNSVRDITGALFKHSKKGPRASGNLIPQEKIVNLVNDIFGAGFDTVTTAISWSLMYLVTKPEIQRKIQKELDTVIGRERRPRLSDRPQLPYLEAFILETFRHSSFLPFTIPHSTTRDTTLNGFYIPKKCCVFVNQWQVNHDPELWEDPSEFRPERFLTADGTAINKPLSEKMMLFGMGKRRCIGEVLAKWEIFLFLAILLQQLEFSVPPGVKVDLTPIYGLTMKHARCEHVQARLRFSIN
Method: The samples were centrifuged at approximately 1,900 g for 10 mins before LC-MS/MS analysis.
The C YP3A4 and CYP1A2 activities in human hepatocytes were assayed by testosterone 6β-

OATP2B1 = target: T4, OATP2B1 (Homo sapiens, UniProt O94956); assay: OATP substrate identification, uptake in stably transfected HEK293 cells; settings: positive control
T4 sequence (O94956 1-709): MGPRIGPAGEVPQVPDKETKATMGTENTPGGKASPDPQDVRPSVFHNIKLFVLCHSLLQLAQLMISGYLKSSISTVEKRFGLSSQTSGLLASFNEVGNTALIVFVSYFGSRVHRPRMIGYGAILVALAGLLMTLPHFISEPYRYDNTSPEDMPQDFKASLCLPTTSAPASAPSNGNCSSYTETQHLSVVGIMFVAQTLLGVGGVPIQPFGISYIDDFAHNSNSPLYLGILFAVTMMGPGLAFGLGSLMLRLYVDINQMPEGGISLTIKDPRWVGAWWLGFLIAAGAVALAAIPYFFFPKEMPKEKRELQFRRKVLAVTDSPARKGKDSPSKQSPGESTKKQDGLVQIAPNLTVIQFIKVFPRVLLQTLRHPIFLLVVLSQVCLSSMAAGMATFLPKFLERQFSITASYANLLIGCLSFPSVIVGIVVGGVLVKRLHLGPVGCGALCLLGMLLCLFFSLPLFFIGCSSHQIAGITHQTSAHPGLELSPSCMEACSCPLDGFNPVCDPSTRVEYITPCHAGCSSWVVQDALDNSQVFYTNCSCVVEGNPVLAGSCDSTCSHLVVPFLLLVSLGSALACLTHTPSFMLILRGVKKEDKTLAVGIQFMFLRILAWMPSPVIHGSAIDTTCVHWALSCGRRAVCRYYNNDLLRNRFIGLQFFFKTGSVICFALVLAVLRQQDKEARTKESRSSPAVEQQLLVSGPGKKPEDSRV
Method: as §9, §10, §11

OATP1A2 = target: T5, OATP1A2 (Homo sapiens, UniProt P46721); assay: as above
T5 sequence (P46721 1-670): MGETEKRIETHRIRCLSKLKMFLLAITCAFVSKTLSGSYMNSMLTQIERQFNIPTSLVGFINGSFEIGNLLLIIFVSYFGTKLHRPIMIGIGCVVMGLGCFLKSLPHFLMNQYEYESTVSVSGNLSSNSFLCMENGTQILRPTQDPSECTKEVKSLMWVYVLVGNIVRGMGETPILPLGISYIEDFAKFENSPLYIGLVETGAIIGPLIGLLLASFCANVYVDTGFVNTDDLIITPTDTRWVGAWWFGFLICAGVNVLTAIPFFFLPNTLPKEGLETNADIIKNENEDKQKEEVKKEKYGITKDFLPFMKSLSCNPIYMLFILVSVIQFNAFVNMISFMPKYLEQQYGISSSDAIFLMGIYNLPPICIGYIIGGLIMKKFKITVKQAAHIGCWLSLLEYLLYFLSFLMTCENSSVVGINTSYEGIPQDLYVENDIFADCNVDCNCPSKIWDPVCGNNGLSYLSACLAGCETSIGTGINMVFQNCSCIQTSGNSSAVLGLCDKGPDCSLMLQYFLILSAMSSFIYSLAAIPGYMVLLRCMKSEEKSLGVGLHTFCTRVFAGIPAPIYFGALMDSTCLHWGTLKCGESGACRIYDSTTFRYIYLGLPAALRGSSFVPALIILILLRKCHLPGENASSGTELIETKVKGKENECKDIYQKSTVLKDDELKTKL
Method: as §9, §10, §11

CC(C)NCC(O)COc1cccc2ccccc12 (stereo not drawn) [Propranolol, reference compound]
f u,plasma % [1]: 0.220 ± 0.0200%
f u,plasma % [2]: 6.50 ± 0.480%
Papp A→B at 1 μM (in vitro): 17 ± 1.3 ×10⁻⁶ cm/s

C[C@H]1O[C@@H](O[C@H]2[C@@H](O)C[C@H](O[C@H]3[C@@H](O)C[C@H](O[C@H]4CC[C@@]5(C)[C@H](CC[C@@H]6[C@@H]5C[C@@H](O)[C@]5(C)[C@@H](C7=CC(=O)OC7)CC[C@]65O)C4)O[C@@H]3C)O[C@@H]2C)C[C@H](O)[C@@H]1O [Digoxin]
Papp A→B at 2 μM (in vitro): 3.5 ± 0.34 ×10⁻⁶ cm/s
efflux ratio at 2 μM (in vitro): 5 ± 1.5

COC(=O)c1ccccc1-c1c2ccc(=N)cc-2oc2cc(N)ccc12 [Rhodamine 123]
Papp A→B at 1 μM (in vitro): 0.73 ± 0.02 ×10⁻⁶ cm/s

C[C@]12CC[C@@H]3c4ccc(O)cc4CC[C@H]3[C@@H]1CC[C@@H]2O[C@@H]1O[C@H](C(=O)O)[C@@H](O)[C@H](O)[C@H]1O [β-Estradiol 17-β-D-glucuronide, reference compound]
uptake ratio of OATP1B3 (OATP1B3): 10 ± 3.0
uptake ratio of OATP1B1 (OATP1B1): 45 ± 7.6

NS(=O)(=O)c1cc(C2(O)NC(=O)c3ccccc32)ccc1Cl (stereo not drawn) [Chlorthalidone, reference compound]
blood plasma ratio at 1 h, 1 μM ([3]; human): 11 ± 3.2
blood plasma ratio at 1 h, 1 μM ([3]; mouse): 6.2 ± 0.2

CC[C@@]1(O)C(=O)OCc2c1cc1n(c2=O)Cc2cc3c(CN(C)C)c(O)ccc3nc2-1 [Topotecan]
Papp A→B at 2 μM (in vitro): 1.2 ± 0.09 ×10⁻⁶ cm/s
efflux ratio at 2 μM (in vitro): 4.6 ± 1.7

O=C([O-])c1ccccc1-c1c2ccc(=O)cc-2oc2cc([O-])ccc12.[Na+].[Na+] [Sodium fluorescein]
Papp (A-B) (Caco-2 cells): 1.40 ± 0.260 (cm/s) × 10-6

NCC1(CC(=O)O)CCCCC1 [Gabapentin, reference compound]
Unbound brain distribution (Vu, brain) [4]: 2.20 ± 1.00 mL/g brain

CCOc1ccc(NC(C)=O)cc1 [Phenacetin, reference compound]
hepatocyte CLint at 1 μM (Hepatocyte stability): 33 ± 8 µL/min/1e6 cells
phenacetin O-deethylation (CYP1A2 activity) (CYP1A2): 24.3 ± 3.25 pmol/min/106 cells

C[C@]12CC[C@@H]3c4ccc(OS(=O)(=O)O)cc4CC[C@H]3[C@@H]1CCC2=O [estrone-3-sulfate, reference compound]
uptake ratio of OATP2B1 (OATP2B1): 13 ± 2.9
uptake ratio of OATP1A2 (OATP1A2): 18 ± 3.7
